Experimental data from patent US8202886B2, “Small molecule E2F inhibitor” (H. Lee Moffitt Cancer Center and Research Institute, Inc., priority 2008, dated 2012).
Like-named read-outs stand apart in the source and are kept apart here.

How the values were obtained:
E2F4 [1] = target: T1, E2F4 (Homo sapiens, UniProt Q16254); experiment: E2F4 DNA-binding EMSA on whole cell extracts of treated A375 cells; assay type: cell-based; conditions: for effect on E2F4 DNA-binding activity: 9-hrs
Description: Whole cell extracts of treated cells were prepared and the DNA-binding activity of E2F4 measured by EMSA.
PhosphoImager EMSA signals from four independent experiments were quantified using ImageQuant and the results are graphed in FIG. 10B. The apparent IC50 (drug concentration required to reduce total E2F4 DNA-binding activity by 50% of untreated cells was calculated using the Statistical Analysis System (Proc Probit)).
To determine the activity of the therapeutic compound over time, A375 cells were treated with 40-μM of compound and examined at 0-, 3-, 6-, 9-, 12-, 18- and 24-hrs by EMSA and western (FIG. 11A).
(§1) Quantitative EMSA assays were performed in triplicate.
Target sequence in this assay (Q16254 2-413 limits assumed): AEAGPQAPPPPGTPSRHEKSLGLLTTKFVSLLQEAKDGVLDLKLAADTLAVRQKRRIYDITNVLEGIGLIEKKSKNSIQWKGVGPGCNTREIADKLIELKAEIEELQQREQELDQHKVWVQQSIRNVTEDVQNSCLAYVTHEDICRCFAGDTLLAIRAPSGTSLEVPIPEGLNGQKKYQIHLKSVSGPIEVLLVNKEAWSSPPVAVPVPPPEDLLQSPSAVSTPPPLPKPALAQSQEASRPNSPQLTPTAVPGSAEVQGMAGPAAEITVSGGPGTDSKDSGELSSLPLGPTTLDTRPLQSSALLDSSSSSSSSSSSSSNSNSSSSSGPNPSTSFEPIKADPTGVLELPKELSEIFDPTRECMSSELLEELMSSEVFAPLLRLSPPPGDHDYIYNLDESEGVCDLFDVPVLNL
Target sequence in this assay (Q14186 whole entry partner): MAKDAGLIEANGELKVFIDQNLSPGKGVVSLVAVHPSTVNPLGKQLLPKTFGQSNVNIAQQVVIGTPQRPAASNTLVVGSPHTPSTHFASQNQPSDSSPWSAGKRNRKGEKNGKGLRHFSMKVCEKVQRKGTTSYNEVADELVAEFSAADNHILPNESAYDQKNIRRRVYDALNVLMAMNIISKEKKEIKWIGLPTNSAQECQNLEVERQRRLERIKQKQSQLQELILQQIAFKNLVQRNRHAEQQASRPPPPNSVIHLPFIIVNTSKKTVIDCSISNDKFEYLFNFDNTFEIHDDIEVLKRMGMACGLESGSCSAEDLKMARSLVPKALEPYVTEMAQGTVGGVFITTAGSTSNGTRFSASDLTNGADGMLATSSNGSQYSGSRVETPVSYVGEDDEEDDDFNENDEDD

8226-dox40 = experiment: MTS viability assay, 8226-dox40; assay type: cell-based; conditions: Homo sapiens
Description: (§2) Cells were collected 24 hours post drug exposure and extracts subjected to western blotting using antibodies to the indicated proteins. Cleavage of PARP indicates apoptosis.
To examine its effect on a range of commonly studied cell lines, the inventors utilized standard MTS assays to quantify cell viability following the therapeutic compound treatment. Cytotoxicity was determined using MTS assays, which were conducted using a CellTiter 96® AQueous One Cell Proliferation Assay Kit (Promega) following the published protocol. Cells in 0.1 ml volume were plated in triplicate into 96-well plates, 1×10^4 cells/well. the therapeutic compound was added and after 24 hours of incubation at 37° C., 20 μl of MTS dye was added to each well. Plates were read at 490 nm following 4 hrs MTS reaction time. The concentration of drug which produced a 50% inhibition of growth (IC50) was calculated from linear regression analysis of the linear portion of the growth curves.

MDA-MB-231 = experiment: Apo-BrdU TUNEL apoptosis assay, MDA-MB-231; assay type: cell-based, human; conditions: 40-μM, 24-hrs
From the text: (§3) To determine if treatment with the therapeutic compound contributes to apoptosis, Cells were detached from culture plates by trypsin treatment, washed twice with PBS, and fixed in 70% ethanol. Fixed cells were washed twice with PBS and treated with RNase A and propidium iodide (PI). PI staining was examined using a Becton-Dickinson FACScan instrument and Cell Quest software. TUNEL assay for apoptosis utilized a Pharmingen APO-BRDU Kit. MTS (3-(4,5-dimethylthiazol-2-yl)-5-(3-carboxymethoxyphenyl)-2-(4-sulfophenyl)-2H-tetrazolium, inner salt) assays were conducted using a CellTiter 96® AQueous One Cell Proliferation Assay Kit (Promega).
A375, MDA-MB-231 (231), MCF-7 and human foreskin fibroblasts (HFF) cells were treated with 40-μM of the therapeutic compound for 24-hrs and subjected to a FACS based terminal deoxynucleotidyl transferase (TUNEL) assay (Apo-BrdU Kit from BD Pharmingen).

A375 cells [2] = experiment: Propidium iodide flow cytometry, sub-G1 DNA content; assay type: cell-based, human; conditions: 40-μM
From the text: as §3

A375 melanocytes = experiment: Three-dimensional skin model of A375 proliferation and invasion; assay type: cell-based, human; conditions: for activated caspase-3 positive cells (IHC): day 2, 5 or 8; for proliferation and invasion of melanocytes (S-100 IHC): day 12, 16 and 20
Description: Culture inserts of differentiated full-thickness 3D skin reconstruction model of A375 melanoma cells were purchased from MatTek (Ashland, Mass.). These were prepared by culturing mixed suspensions of normal human epidermal keratinocytes and A375 cells (1:10 ratio) on fibroblast contracted collagen gels and allowing differentiation for approximately one week in serum free media to form a 3D skin-like structure. These cultures were treated with 0, 40 or 80 μM 6474 and harvested after 0, 2, 5, 8, 12, 16 and 20 days.
In this model, the highly metastatic A375 melanocytes were mixed with normal human keratinocytes and seeded on fibroblast-contracted collagen gels. The mixed cells were then induced to differentiate in serum free media to form three-dimensional, highly differentiated, full thickness skin-like tissues. After seven days of differentiation the cells were then treated with 0 (DMSO carrier alone), 40 or 80 μM the therapeutic compound. The three-dimensional models were then cultured for 2, 5, 8, 12, 16 and 20 days. At the appointed time, 3D cultures were fixed in formalin, paraffin embedded, sectioned and either stained with H&E or processed for immunohistochemistry (1HC) using antibodies against S-100 to measure expression of a melanocyte marker, E2F4 to determine if it were down regulated as in 2D culture, activated caspase-3 to measure apoptosis and […] to measure the proliferative index.

lung cancer cell lines = experiment: CT Blue Viability Assay, drug combinations; assay type: cell-based; conditions: combination with taxol
Description: The indicated lung cancer cell lines were exposed to taxol, cisplatin, or gemacitabine alone, the therapeutic compound alone, or a combination as indicated. These experiments and analysis were performed in the Experimental Therapeutics Core using the CT Blue Viability Assay.

H460 = experiment: Western blots of treated H460 cells; assay type: cell-based
Description: In order to further examine the mechanism of action of the therapeutic compound four lung cancer cell lines were treated with various concentrations of drug and western blots performed on cell extracts after 24 hr.

NSCLC lines = experiment: Western blots of cell cycle proteins in NSCLC lines; assay type: cell-based; conditions: every cell line treated, 40 micromolar, 24 hrs
Description: The indicated NSCLC lines were treated with 40 micromolar the therapeutic compound and subjected western blotting 24 hrs later using the indicated antibodies.

[3] = tested on: 8226-s, 8226-dox40 and 8226-MR20; experiment: PARP cleavage western in drug sensitive and resistant 8226 lines; assay type: cell-based, human; conditions: 24 hours; 10 μM cisplatin or 10, 20 or 40 μM HLM006474
Description: as §2

E2F complexes = experiment: E2F EMSA on extracts of treated breast cancer cell lines; assay type: cell-based; conditions: 40 μM
Description: Several breast cancer cell lines were treated with 40 μM HLM006474 and extracts subjected to E2F EMSA assay.
as §1

MCF7 cells = experiment: RNase protection assay, MCF7; assay type: cell-based, human
Description: The indicated breast cancer lines were treated with 40 micromolar the therapeutic compound and subjected RNAse protection assay 24 hrs later using the indicated probes.
An RNase protection assay was performed to determine if downregulation of the Rb family members at the level of mRNA could account for the downregulation of the proteins. Two breast cancer cell lines were examined at 0, 3, 6, 9, 18 and 24 hr following the therapeutic compound treatment (FIG. 21).

E2F4 [4] = target: T1, E2F4; experiment: Whole-membrane E2F4 western for cleavage products; assay type: cell-based; design: endogenous in cells; conditions: 40 uM
Target sequence in this assay (Q16254 whole entry): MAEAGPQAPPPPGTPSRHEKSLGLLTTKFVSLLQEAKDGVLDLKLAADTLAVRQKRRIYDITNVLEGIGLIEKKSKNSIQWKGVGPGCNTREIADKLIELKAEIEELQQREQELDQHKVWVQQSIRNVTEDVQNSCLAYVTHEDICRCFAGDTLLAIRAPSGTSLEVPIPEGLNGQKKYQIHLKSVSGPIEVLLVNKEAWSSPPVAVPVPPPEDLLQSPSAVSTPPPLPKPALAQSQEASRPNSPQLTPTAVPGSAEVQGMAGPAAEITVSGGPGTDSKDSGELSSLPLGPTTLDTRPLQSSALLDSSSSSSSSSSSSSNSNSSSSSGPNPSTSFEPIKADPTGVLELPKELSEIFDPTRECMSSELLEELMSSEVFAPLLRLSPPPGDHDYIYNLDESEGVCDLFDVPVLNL
Description: The indicated cell lines were treated with 40 micromolar the therapeutic compound and subjected to western blotting 24 hrs later. In this case, the entire lanes were subjected to western blot with an E2F4 antibody in order to detect potential immunoreactive truncation products.
For this experiment cells were treated with 40 uM the therapeutic compound and were subjected to western blotting. However, rather than cut the western membrane into three pieces (to probe simultaneously for three proteins of different sizes) the entire membrane was used to reveal smaller immunoreactive bands.

A375 cells [5] = experiment: Western blots of treated A375 cells
Description: Actin served as a loading control in these experiments and in those that follow.
To further examine the timing of the therapeutic compound-induced apoptosis, A375 cells were treated with 40-μM the therapeutic compound, harvested and fixed at various time periods.
To compare the mechanism of the therapeutic compound-induced apoptosis with that of several standard DNA damaging drugs, A375 cells were treated for 24-hrs with 40-μM the therapeutic compound, 10 μM cisplatin, 10 nM doxorubicin, 10 μM VP16 (etoposide) or with two-drug combinations.
Western blots utilized 50 μg of whole cell extract per lane as previously described. […] Detection of proteins was accomplished using horseradish-peroxidase-conjugated secondary antibodies and enhanced chemiluminescence (ECL) purchased from Amersham.

[6] = 40 μM, listed as the therapeutic compound

For CCOc1ccc(C(Nc2ccccn2)c2ccc3ccc(C)nc3c2O)cc1C (centres unmarked) [HLM006474], the “effect on E2F4 DNA-binding activity” value (E2F4 [1]; 10 and 20-μM) was “limited effect”, the “reduction of E2F4 activity” value (E2F4 [1]; 40-μM drug, expected from dose response) was 50-75% and the “effect on E2F4 DNA-binding activity” value (E2F4 [1]; 40-μM) was “inhibition is clearly apparent”. The IC50 (E2F4 [1]; A375 cells treated 9-hrs, EMSA, Proc Probit, read-out: IC50 (drug concentration required to reduce total E2F4 DNA-binding activity by 50% of untreated cells)) was 29.8 µM, the IC50 (E2F4 [1]; as restated for the NCI60 screen, read-out: known IC50) was 30 µM and the “time at which inhibition of E2F4 DNA-binding activity became apparent” value (E2F4 [1]; single 40-μM dose) was 9 h. For the same compound, the IC50 (8226-dox40) was 31 ± 4 µM, the “apoptosis (TUNEL)” value (MDA-MB-231) was “dramatic induction of apoptosis” and the “time at which increase in sub-G1 DNA content begins” value (A375 cells [2]) was “approximately 9 hrs”. The “effects on the other cells (fibroblasts and keratinocytes) of the 3D tissue” value (A375 melanocytes) was “no obvious deleterious effects”, the “E2F4 levels (IHC)” value (A375 melanocytes; 40 μM) was “clearly reduced” and the Ki-67 staining (A375 melanocytes; 40 μM, day 2, 5 and 8) was “decrease in the number of proliferative cells”. The “activated caspase-3 positive cells (IHC)” value (A375 melanocytes; 40 μM) was “no detectable increase in apoptotic cells”, the “activated caspase-3 positive cells (IHC)” value (A375 melanocytes; [6]) was “no significant difference” and the “proliferation and invasion of melanocytes (S-100 IHC)” value (A375 melanocytes; 40 μM) was “very rare”. For the same compound, the “proliferation and invasion of melanocytes (S-100 IHC)” value (A375 melanocytes; [6]) was “significantly inhibited the proliferation and subsequent invasion”, the “melanocyte proliferation (H&E)” value (A375 melanocytes; 80 μM) was “essentially no melanocyte proliferation” and the synergy with taxol (lung cancer cell lines) was “synergizes significantly”. The “Bcl-2 or Mcl-2 (western)” value (H460; H460, 40-μM) was “did not show changes”, the “sensitivity (downregulation of E2F1 and E2F4, PARP cleavage)” value (H460; H460, various concentrations, 24 hr) was “very sensitive” and the “Rb (western)” value (NSCLC lines) was “down (at least modestly)”. For the same compound, the “PARP cleavage (apoptosis) in sensitive versus resistant lines” value [3] was “very similar”, the “DNA-binding of all E2F complexes (EMSA)” value (E2F complexes) was “inhibited” and the “Rb at the mRNA level” value (MCF7 cells; MCF7) was “no significant change”. For the same compound, the “p21 mRNA” value (MCF7 cells; MCF7) was “upregulated”, the “mRNA for p107” value (MCF7 cells; MCF7, 0-24 hr) was “repressed” and the “E2F4 immunoreactive truncation product” value (E2F4 [4]) was “appearance of a 40 kD band”. The “expression of E2F4 or E2F1 (western)” value (A375 cells [5]; 9-hrs of treatment) was “does not significantly affect”, the “Mcl-1 (western)” value (A375 cells [5]; 24-hrs, 40-μM) was “may slightly repress Mcl-1” and the “PARP cleavage (western)” value (A375 cells [5]; 24-hrs, 40-μM) was “potent inducer of PARP cleavage”. For the same compound, the “time at which PARP cleavage indicates significant apoptosis” value (A375 cells [5]; 40-μM) was at most 12 h and the “time at which decrease in total E2F4 protein became apparent” value (A375 cells [5]; 40-μM) was “up to 24 hrs”.
